Test results: ChEMBL document CHEMBL1126699, “Structure-activity relationships in 1,4-benzodioxan-related compounds. 4. Effect of aryl and alkyl substituents at position 3 on alpha-adrenoreceptor blocking activity” (J Med Chem, 1993)

Columns and labels:
[1] = biological target: T1, Adrenergic receptor alpha-1 (Rattus norvegicus, UniProt P15823+P23944+P43140); test: Ex vivo alpha-1-adrenoceptor blocking activity by antagonism of (-)-norepinephrine -induced contractions of the epididymal portion of isolated rat vas deferens.; format: functional
T1 sequence (P15823 whole entry): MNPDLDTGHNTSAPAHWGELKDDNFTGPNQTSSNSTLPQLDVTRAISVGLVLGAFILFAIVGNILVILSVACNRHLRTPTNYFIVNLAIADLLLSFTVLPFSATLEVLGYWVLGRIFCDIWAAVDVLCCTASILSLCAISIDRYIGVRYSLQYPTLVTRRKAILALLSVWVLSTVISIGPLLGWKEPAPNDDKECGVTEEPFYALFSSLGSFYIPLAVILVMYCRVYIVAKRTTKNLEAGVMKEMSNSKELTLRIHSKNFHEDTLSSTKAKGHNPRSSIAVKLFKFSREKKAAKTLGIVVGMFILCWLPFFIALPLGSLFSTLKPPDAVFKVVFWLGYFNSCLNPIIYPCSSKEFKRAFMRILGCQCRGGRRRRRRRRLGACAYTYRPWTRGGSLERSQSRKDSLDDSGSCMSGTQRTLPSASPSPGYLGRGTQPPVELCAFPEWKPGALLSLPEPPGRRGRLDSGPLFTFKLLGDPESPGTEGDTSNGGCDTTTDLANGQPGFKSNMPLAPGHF
T1 sequence (P23944 whole entry): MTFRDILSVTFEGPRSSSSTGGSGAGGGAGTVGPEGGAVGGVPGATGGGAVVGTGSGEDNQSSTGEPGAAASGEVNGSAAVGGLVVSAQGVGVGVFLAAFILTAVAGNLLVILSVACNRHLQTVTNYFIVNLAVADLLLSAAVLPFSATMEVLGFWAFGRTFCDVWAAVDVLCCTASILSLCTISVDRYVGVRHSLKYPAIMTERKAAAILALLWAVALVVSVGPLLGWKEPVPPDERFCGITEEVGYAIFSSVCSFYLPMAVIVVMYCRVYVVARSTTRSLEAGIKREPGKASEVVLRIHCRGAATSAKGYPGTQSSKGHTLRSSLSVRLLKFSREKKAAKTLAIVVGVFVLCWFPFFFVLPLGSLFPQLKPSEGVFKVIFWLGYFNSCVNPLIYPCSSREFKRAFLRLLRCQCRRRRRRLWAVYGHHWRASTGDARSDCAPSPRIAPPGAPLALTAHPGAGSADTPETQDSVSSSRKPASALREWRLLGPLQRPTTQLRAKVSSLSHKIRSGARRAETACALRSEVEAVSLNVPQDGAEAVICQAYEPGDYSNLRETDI
T1 sequence (P43140 whole entry): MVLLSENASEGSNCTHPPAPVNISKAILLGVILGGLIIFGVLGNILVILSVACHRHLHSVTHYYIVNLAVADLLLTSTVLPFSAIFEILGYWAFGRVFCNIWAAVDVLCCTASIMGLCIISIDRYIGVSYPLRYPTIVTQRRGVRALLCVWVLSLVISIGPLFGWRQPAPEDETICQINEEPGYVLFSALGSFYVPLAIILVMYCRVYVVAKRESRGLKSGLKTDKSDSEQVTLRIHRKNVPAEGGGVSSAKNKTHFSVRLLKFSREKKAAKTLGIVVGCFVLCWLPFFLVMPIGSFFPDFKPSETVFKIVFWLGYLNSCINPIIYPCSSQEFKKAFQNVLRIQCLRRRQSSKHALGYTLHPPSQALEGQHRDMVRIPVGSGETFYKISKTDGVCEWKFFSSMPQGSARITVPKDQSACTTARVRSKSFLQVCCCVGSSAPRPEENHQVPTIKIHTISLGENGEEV

[2] = biological target: T2, Adrenergic receptor alpha-2 (Rattus norvegicus, UniProt P22086+P19328+P22909); test: Tested for the alpha-2-adrenoceptor blocking activity by antagonism of clonidine-induced depression of the twitch responses of the field-stimulated prostatic portion of isolated rat vas deferens; inactive uM; format: functional
T2 sequence (P22086 whole entry): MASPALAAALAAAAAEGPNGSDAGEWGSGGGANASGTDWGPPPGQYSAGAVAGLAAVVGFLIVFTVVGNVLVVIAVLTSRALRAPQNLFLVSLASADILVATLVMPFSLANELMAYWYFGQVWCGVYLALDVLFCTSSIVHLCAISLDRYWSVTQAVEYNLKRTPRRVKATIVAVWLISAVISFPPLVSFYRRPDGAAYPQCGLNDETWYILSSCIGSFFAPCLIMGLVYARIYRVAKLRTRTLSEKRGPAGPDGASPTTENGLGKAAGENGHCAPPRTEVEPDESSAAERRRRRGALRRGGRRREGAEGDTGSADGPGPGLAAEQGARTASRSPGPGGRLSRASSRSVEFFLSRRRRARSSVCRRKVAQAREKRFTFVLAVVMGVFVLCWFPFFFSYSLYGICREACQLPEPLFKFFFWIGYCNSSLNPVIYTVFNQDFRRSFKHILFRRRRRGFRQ
T2 sequence (P19328 whole entry): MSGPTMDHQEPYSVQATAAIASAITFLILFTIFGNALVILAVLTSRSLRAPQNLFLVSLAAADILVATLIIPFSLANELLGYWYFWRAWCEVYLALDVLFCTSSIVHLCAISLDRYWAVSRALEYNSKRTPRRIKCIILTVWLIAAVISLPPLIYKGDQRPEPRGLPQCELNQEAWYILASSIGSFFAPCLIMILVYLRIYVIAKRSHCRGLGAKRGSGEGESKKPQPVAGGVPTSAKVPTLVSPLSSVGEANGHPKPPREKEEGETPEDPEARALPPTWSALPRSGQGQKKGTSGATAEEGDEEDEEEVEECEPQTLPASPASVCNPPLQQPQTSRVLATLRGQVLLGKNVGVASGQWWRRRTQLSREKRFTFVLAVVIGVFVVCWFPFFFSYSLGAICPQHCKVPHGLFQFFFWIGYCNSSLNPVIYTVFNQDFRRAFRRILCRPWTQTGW
T2 sequence (P22909 whole entry): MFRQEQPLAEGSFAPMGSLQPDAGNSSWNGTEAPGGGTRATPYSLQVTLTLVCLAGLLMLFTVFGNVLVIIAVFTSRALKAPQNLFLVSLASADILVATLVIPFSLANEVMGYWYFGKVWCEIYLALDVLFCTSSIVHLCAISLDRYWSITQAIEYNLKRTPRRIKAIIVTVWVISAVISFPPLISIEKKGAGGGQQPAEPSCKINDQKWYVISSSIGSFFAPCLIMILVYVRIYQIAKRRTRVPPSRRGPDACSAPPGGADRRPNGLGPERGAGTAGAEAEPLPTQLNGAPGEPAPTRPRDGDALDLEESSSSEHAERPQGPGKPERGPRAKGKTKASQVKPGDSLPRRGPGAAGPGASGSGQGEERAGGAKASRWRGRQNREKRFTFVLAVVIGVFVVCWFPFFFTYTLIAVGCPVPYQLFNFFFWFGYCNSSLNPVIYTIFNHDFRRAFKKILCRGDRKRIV

[3] = biological target: Adrenergic receptor alpha (Rattus norvegicus) (UniProt P15823+P23944+P43140+P22086+P19328+P22909); test: Selectivity ratio is the antilog of the difference between pA2 values at alpha1- and alpha2- adrenoceptors
[4] = biological target: T2, Adrenergic receptor alpha-2; test: Tested for the alpha-2-adrenoceptor blocking activity by antagonism of clonidine-induced depression of the twitch responses of the field-stimulated prostatic portion of isolated rat vas deferens (inactive up to 30 uM); format: functional, tissue-based
[5] = biological target: T2, Adrenergic receptor alpha-2; test: Tested for the alpha-2-adrenoceptor blocking activity by antagonism of clonidine-induced depression of the twitch responses of the field-stimulated prostatic portion of isolated rat vas deferens; at concentration 30 uM; format: functional
[6] = biological target: T2, Adrenergic receptor alpha-2; test: Tested for the alpha-2-adrenoceptor blocking activity by antagonism of clonidine-induced depression of the twitch responses of the field-stimulated prostatic portion of isolated rat vas deferens; format: functional, tissue-based

| SMILES | pA2 [1] | pA2 [2] | Ratio [3] | pA2 [4] | pA2 [5] | pA2 [6] |
| --- | --- | --- | --- | --- | --- | --- |
| COc1ccc([C@H]2Oc3ccccc3O[C@@H]2CNCCOc2c(OC)cccc2OC)cc1 | 8.67 | < 4.52 | > 14000 | – | – | – |
| COc1cccc(OC)c1OCCNC[C@H]1Oc2ccccc2O[C@@H]1C1CCCCC1 | 6.09 | – | > 40 | < 4.52 | – | – |
| CCc1ccc([C@H]2Oc3ccccc3O[C@@H]2CNCCOc2c(OC)cccc2OC)cc1 | 7.82 | < 4.52 | > 2000 | – | – | – |
| COc1cccc(OC)c1OCCNC[C@H]1Oc2ccccc2O[C@H]1c1ccc(C)cc1 | 7.1 | – | 73 | – | 5.24 | – |
| COc1cccc(OC)c1OCCNC[C@H]1Oc2ccccc2O[C@H]1C(C)C | 5.94 | – | 2 | – | – | 5.76 |
| COc1cccc(OC)c1OCCNCC1COc2ccccc2O1 (stereo unspecified) | 9.26 | – | 740 | – | – | 6.39 |
| COc1cccc(OC)c1OCCNC[C@H]1Oc2ccccc2O[C@@H]1C | 7.94 | – | 30 | – | – | 6.46 |
| COc1cccc(OC)c1OCCNC[C@H]1Oc2ccccc2O[C@@H]1c1ccc(C)cc1 | 8.69 | – | 21000 | – | – | 4.37 |
| COc1cccc(OC)c1OCCNC[C@H]1Oc2ccccc2O[C@@H]1c1ccc(OC(C)=O)cc1 | 8.12 | – | 2600 | – | – | 4.87 |
| COc1cccc(OC)c1OCCNC[C@H]1Oc2ccccc2O[C@H]1c1ccc(Cl)cc1 | 7.09 | – | 210 | – | 4.76 | – |
| COc1cccc(OC)c1OCCNC[C@H]1Oc2ccccc2O[C@@H]1C(C)C | 6.57 | – | 4 | – | – | 5.94 |
| COc1cccc(OC)c1OCCNC[C@H]1Oc2ccccc2O[C@@H]1c1ccccc1 | 8.39 | – | 16000 | – | – | 4.18 |
| CCc1ccc([C@@H]2Oc3ccccc3O[C@@H]2CNCCOc2c(OC)cccc2OC)cc1 | 7.23 | < 4.52 | > 500 | – | – | – |
| COc1cccc(OC)c1OCCNC[C@H]1Oc2ccccc2O[C@H]1C | 8.5 | – | 630 | – | – | 5.7 |
| COc1cccc(OC)c1OCCNC[C@H]1Oc2ccccc2O[C@H]1C1CCCCC1 | 6.2 | – | > 50 | < 4.52 | – | – |
| COc1cccc(OC)c1OCCNC[C@H]1Oc2ccccc2O[C@@H]1c1ccc(O)cc1 | 7.84 | – | 1000 | – | 4.82 | – |
| COc1cccc(OC)c1OCCNC[C@H]1Oc2ccccc2O[C@@H]1c1ccc(Cl)cc1 | 8.15 | – | 1000 | – | 5.17 | – |
